{"source": "patent US20210267992A1", "about": "“5-ACETAMIDOMETHYL-OXAZOLIDINONE DERIVATIVES FOR USE IN THE TREATMENT OF CANCER” (Varsity Pharmaceuticals Limited, priority 2018, published 2021)", "key": {"[1]": {"test_system": "BRCA1 deficient ovarian cancer cells, UWB1.289", "test": "BrdU proliferation assay, single drugs after cisplatin", "assay_type": "cell-based", "conditions": "cisplatin 1 μM for 24 hours followed by the drug alone for 6 days, result in words", "method": "(§1) Methods • Cell morphology, viability and proliferation rate was assessed by visual and counting method. • Day 0: Cells were split and around 1000 cells/well were seeded in normal complete media. • Day 1: Cisplatin was added at 1 μM to the test and controls wells. Untreated cells were left as control. • Day 2: medium containing cisplatin was discarded and new fresh media containing bromodeoxyuridine (BrdU) and the drugs at the concentrations shown in table 1, below, was added. • Day 6: medium was discarded, and cells fixed. BrdU assay was performed according to the manufacturer. • Controls comprised cells without BrdU (Blank), untreated cells (UN) and Cisplatin treated cells for 24 hours only (CIS). • All experiments were conducted in triplicate.\n(§2) BrdU Proliferation Assay • After 6 days of incubation with drugs, the media was discarded, and cells were fixed for 30 minutes, at room temperature, with FixDenat Solution. • FixDenat Solution was then removed and substituted with Anti-BrdU-POD working solution for 2 hours at room temperature. • Plates were then washed 3 times with Washing buffer. • Substrate solution was added. • The reaction was stopped by adding H2SO4 and immediately read at 450 nm.\nData was analysed using Excel and Prism software. The average of the absorbances and the standard error were calculated using the technical triplicate for each condition."}, "UWB1.289 cell line": {"test_system": "UWB1.289 cell line", "test": "BrdU proliferation assay, combinations of PARPis and ATR inhibitors after cisplatin", "assay_type": "cell-based", "conditions": "for proliferation in combination with Aurothiomalate (ATM), compared with the gold complex alone: then Aurothiomalate (ATM) plus the labelled drug for 6 days; for proliferation in combination with auranofin, compared with the gold complex alone: then auranofin plus the labelled drug for 6 days", "method": "as §1, §2\nThe methods were the same as described in example 1 except that the new fresh media added on day 2 contained bromodeoxyuridine (BrdU) and the drugs at the concentrations shown in table 2, below. All possible combinations of concentrations for compounds A and B were tested."}, "[2]": {"test_system": "MDA-MB-436 (BRCA1 mutation) breast cancer cell xenograft", "test": "MDA-MB-436 (BRCA1 mutation) breast cancer cell xenograft experiment", "assay_type": "in vivo", "conditions": "mice, 100 mg/kg BID orally, MDA-MB-436 xenograft", "method": "The MDA-MB-436 tumour cell line was maintained in vitro as monolayer culture in DMEM medium modified supplemented with 10% heat inactivated foetal bovine serum at 37° C. in an atmosphere of 5% CO2 in air. The tumour cells were routinely sub-cultured once a week by trypsin-EDTA treatment, not to exceed 4-5 passages. The cells growing in an exponential growth phase were harvested and counted for tumour inoculation.\nAll mice were inoculated subcutaneously on the right flank with MDA-MB-436 tumour cells (1×10^7) in 0.1 ml of DMEM with Matrigel mixture (1:1 ratio) for tumour development. The treatment started when the mean tumour size reached is approximately 100-150 mm^3. Mice were then be assigned to groups such that the mean tumour volume is the same for each treatment group. The treatments were administered to the tumour-bearing mice orally at 12 hour intervals.\n560 mg linezolid was dissolved in 1.4 ml ethanol and 12.6 ml PEG400. The solution was vortexed and sonicated with high energy ultrasonic probe to get a uniform solution. The resultant solution was used for 1 day.\nThe measurement of tumour size was conducted twice weekly with a calliper and recorded. The tumour volume (mm3) was estimated using the formula: TV=a×b^2/2, where “a” and “b” are long and short diameters of a tumour, respectively."}, "[3]": {"conditions": "UWB1.289, cisplatin 1 μM 24 hours, result in words"}}, "note": "Entries after “also recorded” stand apart in the source; their conditions may differ.", "data": [{"smiles": "CNCc1ccc(-c2[nH]c3cc(F)cc4c3c2CCNC4=O)cc1", "note": "[rucaparib]", "values": [{"measurement": "reduction of proliferation of the cancer cells (BrdU absorbance)", "setting": "[1]", "result": "effectively reduce proliferation"}]}, {"smiles": "O=C(O)CC([S-])C(=O)O.[Au+]", "note": "(stereo not shown) [ATM, Aurothiomalate]", "values": [{"measurement": "reduction of proliferation of the cancer cells (BrdU absorbance)", "setting": "[1]", "result": "effectively reduce proliferation"}]}, {"smiles": "CC(=O)NC[C@H]1CN(c2ccc(N3CCOCC3)c(F)c2)C(=O)O1", "note": "[linezolid]", "values": [{"measurement": "proliferation in combination with Aurothiomalate (ATM), compared with the gold complex alone", "setting": "UWB1.289 cell line; [3]", "result": "particularly marked improvement over the gold complexes when used alone; also recorded: particularly noticeable synergistic effect"}, {"measurement": "proliferation in combination with auranofin, compared with the gold complex alone", "setting": "UWB1.289 cell line; [3]", "result": "particularly marked improvement over the gold complexes when used alone"}, {"measurement": "synergistic effect on proliferation when used with a PARPi", "setting": "UWB1.289 cell line; UWB1.289, combination with a PARPi, result in words", "result": "synergistic effect"}, {"measurement": "percentage proliferation", "setting": "UWB1.289 cell line; UWB1.289, linezolid 100 nM together with Aurothiomalate (ATM) 30 nM, after cisplatin 1 μM 24 hours", "result": 2, "unit": "%"}, {"measurement": "proliferation reduction compared with AZD6738", "setting": "UWB1.289 cell line; inventors' conclusion, result in words", "result": "equivalent to proliferation reduction achieved by AZD6738"}, {"measurement": "reduction of proliferation of the cancer cells (BrdU absorbance)", "setting": "[1]", "result": "reduce proliferation of cancer cells when used alone"}, {"measurement": "reduced tumour size compared to the control group", "setting": "[2]", "result": 38, "unit": "%"}]}, {"smiles": "CC(=O)OC[C@H]1O[C@@H]([S-])[C@H](OC(C)=O)[C@@H](OC(C)=O)[C@@H]1OC(C)=O.CCP(CC)CC.[Au+]", "note": "[auranofin]", "values": [{"measurement": "reduction of proliferation of the cancer cells (BrdU absorbance)", "setting": "[1]", "result": "effectively reduce proliferation"}]}, {"smiles": "OC[C@H]1O[C@H]([S-])[C@H](O)[C@@H](O)[C@@H]1O.[Au+]", "note": "[ATG, Aurothioglucose]", "values": [{"measurement": "reduction of proliferation of the cancer cells (BrdU absorbance)", "setting": "[1]", "result": "effectively reduce proliferation"}]}, {"smiles": "C[C@@H]1COCCN1c1cc(C2([S@](C)(=N)=O)CC2)nc(-c2cc[nH]c3nccc2-3)n1", "note": "[AZD, AZD6738]", "values": [{"measurement": "proliferation in combination with Aurothiomalate (ATM), compared with the gold complex alone", "setting": "UWB1.289 cell line; [3]", "result": "particularly marked improvement over the gold complexes when used alone"}, {"measurement": "proliferation in combination with auranofin, compared with the gold complex alone", "setting": "UWB1.289 cell line; [3]", "result": "particularly marked improvement over the gold complexes when used alone"}, {"measurement": "proliferation in combination with olaparib, compared with olaparib alone", "setting": "UWB1.289 cell line; UWB1.289, cisplatin 1 μM 24 hours, then olaparib plus the labelled drug for 6 days, result in words", "result": "further decreased proliferation when compared to the degree of proliferation observed for olaparib alone"}]}, {"smiles": "O=C(c1cc(Cc2n[nH]c(=O)c3ccccc23)ccc1F)N1CCN(C(=O)C2CC2)CC1", "note": "[Olaparib]", "values": [{"measurement": "reduction of proliferation of the cancer cells (BrdU absorbance)", "setting": "[1]", "result": "effectively reduce proliferation"}]}, {"smiles": "NC(=O)c1cccc2cn(-c3ccc([C@@H]4CCCNC4)cc3)nc12", "note": "[niraparib]", "values": [{"measurement": "reduction of proliferation of the cancer cells (BrdU absorbance)", "setting": "[1]", "result": "effectively reduce proliferation"}]}]}
